Source: patent US11053239B2, “Compounds as BLC-2-selective apoptosis-inducing agents” (Fochon Pharmaceuticals, Ltd., priority 2017, dated 2021)
Like-named read-outs stand apart in the source and are kept apart here.

Columns and labels:
RS4; 11 cells = assay: Cell proliferation assay (MTS), RS4; 11 cells; assay type: cell-based; conditions: RS4, 11 (ATCC CRL-1873) cell proliferation, 30000 cells/well, 72 h, MTS, mechanism-based readout of Bcl-2 inhibition, read-out: RS4, 11 IC50
In short: (§1)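 RS4;11 (30000 cells/well, 72 h) and DOHH2 (5000 cells/well, 120 h) cells in RPMI-1640/10% FBS, treated at 37 °C with compound at 1.5–10000 nM final. Viability by MTS (2 h, SDS stop), absorbance 490 nm minus 650 nm reference; IC50 fitted.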

DOHH2 cells = assay: Cell proliferation assay (MTS), DOHH2 cells; assay type: cell-based; conditions: DOHH2 (DSMZ ACC 47) cell proliferation, 5000 cells/well, 120 h, MTS, mechanism-based readout of Bcl-2 inhibition, read-out: DOHH2 IC50
In short: as §1

Molecule | IC50 (RS4; 11 cells; Homo sapiens, RS4-11, 72 h) [nM] | IC50 (DOHH2 cells; Homo sapiens, DOHH-2, 120 h) [nM] | IC50 (RS4; 11 cells) [nM] | IC50 (DOHH2 cells) [nM]
CC1(C)CCC(CN2CCN(c3ccc(C(=O)NS(=O)(=O)c4ccc(NCC5CCC(N=S(C)(C)=O)CO5)c([N+](=O)[O-])c4)c(Oc4cnc5[nH]ccc5c4)c3)CC2)=C(c2ccc(Cl)cc2)C1 (stereo not shown) [Example 57, 2-((1H-pyrrolo[2,3-b]pyridin-5-yl)oxy)-4-(4-((4′-chloro-5,5-dimethyl-3,4,5,6-tetrahydro-[1,1′-biphenyl]-2-yl)methyl)piperazin-1-yl)-N-((4-(((5-((dimethyl(oxo)-λ^6-sulfanylidene)amino)tetrahydro-2H-pyran-2-yl)methyl)amino)-3-nitrophenyl)sulfonyl)benzamide] | 20 | 30 |  | 
CC1(C)CCC(CN2CCN(c3ccc(C(=O)NS(=O)(=O)c4ccc(NC(CF)CN5CCP(C)(=O)CC5)c([N+](=O)[O-])c4)c(Oc4cnc5[nH]ccc5c4)c3)CC2)=C(c2ccc(Cl)cc2)C1 (stereo not shown) [Example 20, 2-((1H-pyrrolo[2,3-b]pyridin-5-yl)oxy)-4-(4-((4′-chloro-5,5-dimethyl-3,4,5,6-tetrahydro-[1,1′-biphenyl]-2-yl)methyl)piperazin-1-yl)-N-((4-((1-fluoro-3-(4-methyl-4-oxido-1,4-azaphosphinan-1-yl)propan-2-yl)amino)-3-nitrophenyl)sulfonyl)benzamide] | 333 | 388 |  | 
(S)-2-((1H-pyrrolo[2,3-b] pyridin-5-yl)oxy)-4-(4-((4′- chloro-5,5-dimethyl- 3,4,5,6-tetrahydro-[1,1′- biphenyl]-2-yl)methyl) piperazin-1-yl)-N-((4-((1-(4- ((dimethyl(oxo)-λ^6- sulfanylidene)amino) piperidin-1-yl)propan-2-yl) amino)-3-nitrophenyl)sulfonyl) benzamide [Example 97] |  |  | 1 | 325
CC1(C)CCC(CN2CCN(c3ccc(C(=O)NS(=O)(=O)c4ccc(NCCN5CCP(C)(=O)CC5)c([N+](=O)[O-])c4)c(Oc4cnc5[nH]ccc5c4)c3)CC2)=C(c2ccc(Cl)cc2)C1 [Example 2, 2-((1H-pyrrolo[2,3-b]pyridin-5-yl)oxy)-4-(4-((4′-chloro-5,5-dimethyl-3,4,5,6-tetrahydro-[1,1′-biphenyl]-2-yl)methyl)piperazin-1-yl)-N-((4-((2-(4-methyl-4-oxido-1,4-azaphosphinan-1-yl)ethyl)amino)-3-nitrophenyl)sulfonyl)benzamide] | 163 | 427 |  | 
C[C@@H](CCN1CCC(N=S(C)(C)=O)CC1)Nc1ccc(S(=O)(=O)NC(=O)c2ccc(N3CCN(CC4=C(c5ccc(Cl)cc5)CC(C)(C)CC4)CC3)cc2Oc2cnc3[nH]ccc3c2)cc1[N+](=O)[O-] [Example 96, (S)-2-((1H-pyrrolo[2,3-b]pyridin-5-yl)oxy)-4-(4-((4′-chloro-5,5-dimethyl-3,4,5,6-tetrahydro-[1,1′-biphenyl]-2-yl)methyl)piperazin-1-yl)-N-((4-((4-(4-((dimethyl(oxo)-λ^6-sulfanylidene)amino)piperidin-1-yl)butan-2-yl)amino)-3-nitrophenyl)sulfonyl) benzamide] | 20 | 26 |  | 
COC(=O)N=S1(=O)CCN(CC[C@H](C)Nc2ccc(S(=O)(=O)NC(=O)c3ccc(N4CCN(CC5=C(c6ccc(Cl)cc6)CC(C)(C)CC5)CC4)cc3Oc3cnc4[nH]ccc4c3)cc2[N+](=O)[O-])CC1 [Example 84, methyl (S)-(4-(3-((4-(N-(2-((1H-pyrrolo[2,3-b]pyridin-5-yl)oxy)-4-(4-((4′-chloro-5,5-dimethyl-3,4,5,6-tetrahydro-[1,1′-biphenyl]-2-yl)methyl)piperazin-1-yl)benzoyl)sulfamoyl)-2-nitrophenyl)amino)butyl)-1-oxido-1λ^6-thiomorpholin-1-ylidene)carbamate] | 11 | 15 |  | 
C[C@@H](CCN1CCS(=O)(=NC2CC2)CC1)Nc1ccc(S(=O)(=O)NC(=O)c2ccc(N3CCN(CC4=C(c5ccc(Cl)cc5)CC(C)(C)CC4)CC3)cc2Oc2cnc3[nH]ccc3c2)cc1[N+](=O)[O-] [Example 79, (S)-2-((1H-pyrrolo[2,3-b]pyridin-5-yl)oxy)-4-(4-((4′-chloro-5,5-dimethyl-3,4,5,6-tetrahydro-[1,1′-biphenyl]-2-yl)methyl)piperazin-1-yl)-N-((4-((4-(1-(cyclopropylimino)-1-oxido-1λ^6-thiomorpholino)butan-2-yl)amino)-3-nitrophenyl)sulfonyl)benzamide] | 14 | 11 |  | 
CC1(C)CCC(CN2CCN(c3ccc(C(=O)NS(=O)(=O)c4ccc(NCC5CCS(=O)(=NC6CC6)CC5)c(S(=O)(=O)C(F)(F)F)c4)c(Oc4cnc5[nH]ccc5c4)c3)CC2)=C(c2ccc(Cl)cc2)C1 (stereo not shown) [Example 8, 2-((1H-pyrrolo[2,3-b]pyridin-5-yl)oxy)-4-(4-((4′-chloro-5,5-dimethyl-3,4,5,6-tetrahydro-[1,1′-biphenyl]-2-yl)methyl)piperazin-1-yl)-N-((4-(((1-(cyclopropylimino)-1-oxidohexahydro-1λ^6-thiopyran-4-yl)methyl)amino)-3-((trifluoromethyl)sulfonyl)phenyl)sulfonyl)benzamide] | 33 | 99 |  | 
CCN=S1(=O)CCN(CC[C@H](C)Nc2ccc(S(=O)(=O)NC(=O)c3ccc(N4CCN(CC5=C(c6ccc(Cl)cc6)CC(C)(C)CC5)CC4)cc3Oc3cnc4[nH]ccc4c3)cc2[N+](=O)[O-])CC1 [Example 78, (S)-2-((1H-pyrrolo[2,3-b]pyridin-5-yl)oxy)-4-(4-((4′-chloro-5,5-dimethyl-3,4,5,6-tetrahydro-[1,1′-biphenyl]-2-yl)methyl)piperazin-1-yl)-N-((4-((4-(1-(ethylimino)-1-oxido-1λ^6-thiomorpholino)butan-2-yl)amino)-3-nitrophenyl)sulfonyl) benzamide] | 16 | 11 |  | 

The remaining molecules from weak to strong by IC50 (RS4; 11 cells; Homo sapiens, RS4-11, 72 h), led by results:

IC50 (RS4; 11 cells; Homo sapiens, RS4-11, 72 h) [nM] | Molecule | IC50 (DOHH2 cells; Homo sapiens, DOHH-2, 120 h) [nM] | IC50 (RS4; 11 cells) [nM] | IC50 (DOHH2 cells) [nM]
187 | C[C@@H](CCN1CCS(=O)(=NC2CC2)CC1)Nc1ccc(S(=O)(=O)NC(=O)c2ccc(N3CCN(CC4=C(c5ccc(Cl)cc5)CC(C)(C)CC4)CC3)cc2Oc2cnc3[nH]ccc3c2)cc1S(=O)(=O)C(F)(F)F [Example 88, (S)-2-((1H-pyrrolo[2,3-b]pyridin-5-yl)oxy)-4-(4-((4′-chloro-5,5-dimethyl-3,4,5,6-tetrahydro-[1,1′-biphenyl]-2-yl)methyl)piperazin-1-yl)-N-((4-((4-(1-(cyclopropylimino)-1-oxido-1λ^6-thiomorpholino)butan-2-yl)amino)-3-((trifluoromethyl)sulfonyl)phenyl)sulfonyl)benzamide] | 464 |  | 
116 | CC(C)C(=O)N=S1(=O)CCN(CC[C@H](C)Nc2ccc(S(=O)(=O)NC(=O)c3ccc(N4CCN(CC5=C(c6ccc(Cl)cc6)CC(C)(C)CC5)CC4)cc3Oc3cnc4[nH]ccc4c3)cc2S(=O)(=O)C(F)(F)F)CC1 [Example 90, (S)-2-((1H-pyrrolo[2,3-b]pyridin-5-yl)oxy)-4-(4-((4′-chloro-5,5-dimethyl-3,4,5,6-tetrahydro-[1,1′-biphenyl]-2-yl)methyl)piperazin-1-yl)-N-((4-((4-(1-(isobutyrylimino)-1-oxido-1λ^6-thiomorpholino)butan-2-yl)amino)-3-((trifluoromethyl)sulfonyl)phenyl)sulfonyl) benzamide] | 225 |  | 
32 | CCC(=O)N=S1(=O)CCN(CCNc2ccc(S(=O)(=O)NC(=O)c3ccc(N4CCN(CC5=C(c6ccc(Cl)cc6)CC(C)(C)CC5)CC4)cc3Oc3cnc4[nH]ccc4c3)cc2[N+](=O)[O-])CC1 [Example 67, 2-((1H-pyrrolo[2,3-b]pyridin-5-yl)oxy)-4-(4-((4′-chloro-5,5-dimethyl-3,4,5,6-tetrahydro-[1,1′-biphenyl]-2-yl)methyl)piperazin-1-yl)-N-((3-nitro-4-((2-(1-oxido-1-(propionylimino)-1λ^6-thiomorpholino)ethyl)amino)phenyl)sulfonyl)benzamide] | 138 |  | 
18 | CC1(C)CCC(CN2CCN(c3ccc(C(=O)NS(=O)(=O)c4ccc(NCC5CCOCC5)c([N+](=O)[O-])c4)c(Oc4cnc5[nH]ccc5c4)c3)CC2)=C(c2ccc(Cl)cc2)C1 [Reference compound 1, 2-((1H-pyrrolo[2,3-b]pyridin-5-yl)oxy)-4-(4-((4′-chloro-5,5-dimethyl-3,4,5,6-tetrahydro-[1,1′-biphenyl]-2-yl)methyl)piperazin-1-yl)-N-((3-nitro-4-(((tetrahydro-2H-pyran-4-yl)methyl)amino)phenyl)sulfonyl)benzamide, reference compound] | 57 |  | 
6 | CC1(C)CCC(CN2CCN(c3ccc(C(=O)NS(=O)(=O)c4ccc(NCC5(F)CCC(N=S(C)(C)=O)CC5)c([N+](=O)[O-])c4)c(Oc4cnc5[nH]ccc5c4)c3)CC2)=C(c2ccc(Cl)cc2)C1 (stereo not shown) [Example 58, 2-((1H-pyrrolo[2,3-b]pyridin-5-yl)oxy)-4-(4-((4′-chloro-5,5-dimethyl-3,4,5,6-tetrahydro-[1,1′-biphenyl]-2-yl)methyl)piperazin-1-yl)-N-((4-(((4-((dimethyl(oxo)-λ^6-sulfanylidene)amino)-1-fluorocyclohexyl)methyl)amino)-3-nitrophenyl)sulfonyl)benzamide] | 16 |  | 
